Among the test systems are A549; LOX IMVI; MDA-MB-231; SK-MEL-28; CCRF-CEM; SN12C; 786-0; MDA-MB-435; A498; DU-145; KM12; HT-29; SF-539; OVCAR-5; RPMI-8226; UACC-257; T47D; SK-MEL-5; U-251; SK-OV-3.
Common to all, as to test: DTP human tumour cell line panel, 48 h

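Interpolation was linear, between the two tested concentrations surrounding the appropriate level; five concentrations were tested over 48 hours in 96-well plates. GI50: concentration for 50% inhibition of growth.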 Calls of active or inactive are those of the source. Rule as the data show it: active = GI50 up to about 1.1 µM and inactive = higher.

As usually defined, the GI50 is the concentration giving 50% growth inhibition. With `CC1=NN(C(=O)CC(=O)Nc2ccc(C)cc2)C(=O)C1/N=N\c1ccc(S(=O)(=O)c2ccc(/N=N/C3C(=O)N(C(=O)CC(=O)Nc4ccc(C)cc4)N=C3C)cc2)cc1` (stereo not given), the GI50 is 31.6 µM (inactive) in the assay with A549; 16.2 µM (inactive) in the assay with LOX IMVI; 35.6 µM (inactive) with MDA-MB-231; > 100 µM (inactive) with SK-MEL-28; 9.4 µM (inactive) with CCRF-CEM; 50.1 µM (inactive) in the assay with SN12C. The GI50 in the assay on 786-0 was 21 µM (inactive); with MDA-MB-435 it was 84.3 µM (inactive); in the assay with A498, > 100 µM (inactive); in the assay on DU-145, > 100 µM (inactive); with KM12 it was 65.6 µM (inactive); with HT-29, > 10 µM (inactive). The GI50 in the assay with SF-539 is > 100 µM (inactive); with OVCAR-5, > 100 µM (inactive); with RPMI-8226, 82.4 µM (inactive); in the assay on UACC-257, > 100 µM (inactive); in the assay with T47D it was > 100 µM (inactive); in the assay with SK-MEL-5 it was 58.9 µM (inactive). Besides, the GI50 in the assay with U-251 is 52.1 µM (inactive); in the assay with SK-OV-3, 72.4 µM (inactive).
On to `CN(CC(=O)O)CC(=O)O`, for which the GI50 in the assay with A549, with LOX IMVI, in the assay with MDA-MB-231, in the assay with SK-MEL-28, in the assay with CCRF-CEM and in the assay with SN12C was > 100 µM (inactive) each time. For the same compound, the GI50 in the assay with 786-0, with MDA-MB-435, in the assay with A498, in the assay on DU-145, in the assay on KM12 and in the assay with HT-29 was > 100 µM (inactive) throughout. The GI50 is > 100 µM (inactive) in the assay on SF-539; > 100 µM (inactive) in the assay with OVCAR-5; > 100 µM (inactive) in the assay with RPMI-8226; > 100 µM (inactive) with UACC-257; > 100 µM (inactive) in the assay on T47D; 31 µM (inactive) in the assay with SK-MEL-5. The GI50 in the assay with U-251 and in the assay on SK-OV-3 was > 100 µM (inactive) in each case.
Regarding `O=[N+]([O-])C(=C/c1cccs1)/C(=C\c1cccs1)[N+](=O)[O-]`, the GI50 in the assay with A549 was 2.27 µM (inactive); in the assay on LOX IMVI, 0.209 µM (active); in the assay on MDA-MB-231, 0.44 µM (active); in the assay with SK-MEL-28 it was 0.395 µM (active); in the assay on CCRF-CEM, 0.0263 µM (active); with SN12C, 0.547 µM (active). Besides, the GI50 in the assay with 786-0 is 0.298 µM (active); with MDA-MB-435, 0.441 µM (active); in the assay with A498 it was 1.64 µM (inactive); in the assay with DU-145, 1.43 µM (inactive); in the assay on KM12 it was 2.34 µM (inactive); in the assay with HT-29, 1.12 µM (inactive). Also, the GI50 was 0.212 µM (active) in the assay on SF-539; 1.68 µM (inactive) with OVCAR-5; 0.267 µM (active) in the assay with RPMI-8226; 1.29 µM (inactive) with UACC-257; 1.68 µM (inactive) with T47D; 1.08 µM (active) in the assay with SK-MEL-5. Moreover, the GI50 in the assay with U-251 is 0.397 µM (active); in the assay with SK-OV-3, 2.89 µM (inactive).
`COc1ccc2c(c1)N(CCC1CCCCN1C)c1ccccc1S2` (stereo not given) [OXYRIDAZINE]: the GI50 was 14.1 µM (inactive) in the assay with A549; 9.57 µM (inactive) in the assay with LOX IMVI; 11 µM (inactive) in the assay with MDA-MB-231; 3.58 µM (inactive) in the assay on SK-MEL-28; 10.1 µM (inactive) in the assay on CCRF-CEM; 13.4 µM (inactive) in the assay with SN12C. Moreover, the GI50 in the assay on 786-0 is 13.1 µM (inactive); with MDA-MB-435, 7.62 µM (inactive); in the assay on A498, 10.8 µM (inactive); with DU-145, 13.2 µM (inactive); in the assay on KM12 it was 10.8 µM (inactive); in the assay with HT-29, 5.12 µM (inactive). For the same compound, the GI50 in the assay with SF-539 is 23.1 µM (inactive); with OVCAR-5 it was 15.2 µM (inactive); in the assay with RPMI-8226 it was 12.4 µM (inactive); in the assay on UACC-257 it was 5.08 µM (inactive); with T47D, 10.8 µM (inactive); with SK-MEL-5 it was 10.8 µM (inactive). The values for the GI50 in the assay with U-251 and in the assay on SK-OV-3 were 11.3 µM (inactive) and 16.3 µM (inactive), respectively.
With `O=c1c(C(c2ccc(OCc3ccccc3)cc2)c2c(O)oc3ccccc3c2=O)c(O)oc2ccccc12`, the GI50 in the assay with A549 is 40.9 µM (inactive); in the assay with LOX IMVI, 34.2 µM (inactive); with MDA-MB-231, 27 µM (inactive); with SK-MEL-28, 78 µM (inactive); in the assay with CCRF-CEM it was 38.2 µM (inactive); in the assay on SN12C, 30.4 µM (inactive). Moreover, the GI50 with 786-0 was 38.2 µM (inactive); with MDA-MB-435 it was 41.9 µM (inactive); in the assay on A498, 83.2 µM (inactive); in the assay on DU-145, 67.6 µM (inactive); in the assay with KM12 it was 29.6 µM (inactive); with HT-29, 33 µM (inactive). The GI50 is 39.6 µM (inactive) in the assay on SF-539; 75.2 µM (inactive) in the assay with OVCAR-5; 43.1 µM (inactive) with RPMI-8226; 78.9 µM (inactive) in the assay with UACC-257; 81.1 µM (inactive) in the assay on T47D; 29.6 µM (inactive) in the assay on SK-MEL-5. The GI50 was 39.5 µM (inactive) with U-251 and 50.5 µM (inactive) in the assay with SK-OV-3.
Consider `Cc1[nH]c2ccccc2c1/C=N/c1ccc(/N=C/c2c(C)[nH]c3ccccc23)cc1`, for which the GI50 in the assay with A549 is 80 µM (inactive); with LOX IMVI, 19.1 µM (inactive); in the assay with MDA-MB-231 it was 32.5 µM (inactive); in the assay with SK-MEL-28, 97.5 µM (inactive); in the assay with CCRF-CEM, 15.4 µM (inactive); in the assay on SN12C it was 61.2 µM (inactive). For the same compound, the GI50 in the assay with 786-0 is 18.8 µM (inactive); in the assay on MDA-MB-435, 19.7 µM (inactive); in the assay on A498, 52.1 µM (inactive); in the assay on DU-145, 37.4 µM (inactive); in the assay with KM12, 16.4 µM (inactive); in the assay with HT-29, 34 µM (inactive). Also, the GI50 is 21.4 µM (inactive) with SF-539; > 100 µM (inactive) in the assay with OVCAR-5; 18.3 µM (inactive) in the assay on RPMI-8226; 67.3 µM (inactive) in the assay with UACC-257; 25.4 µM (inactive) in the assay with T47D; 17.2 µM (inactive) in the assay with SK-MEL-5. The GI50 with U-251 is 29.6 µM (inactive); in the assay on SK-OV-3, 49.8 µM (inactive).
Turning to `CC(C)[C@H]1NC(=O)[C@H]2N=C(O[C@@H]2C)[C@@H]2CCCN2C(=O)[C@H](Cc2ccccc2)NC(=O)[C@@H]2CSC(=N2)[C@@H](Cc2ccccc2)NC(=O)[C@@H]2CSC1=N2`, the GI50 in the assay with A549 is 84.5 µM (inactive); with LOX IMVI, 75.3 µM (inactive); in the assay with MDA-MB-231, > 100 µM (inactive); with SK-MEL-28 it was 75.3 µM (inactive); with CCRF-CEM, > 100 µM (inactive); in the assay with SN12C it was > 100 µM (inactive). Moreover, the GI50 was > 100 µM (inactive) in the assay on 786-0; 52.8 µM (inactive) in the assay on MDA-MB-435; > 100 µM (inactive) in the assay on A498; > 100 µM (inactive) in the assay with DU-145; 88.1 µM (inactive) with KM12; 84.5 µM (inactive) with HT-29. In addition, the GI50 in the assay with SF-539 was > 100 µM (inactive); in the assay with OVCAR-5 it was > 100 µM (inactive); in the assay with RPMI-8226, 20 µM (inactive); in the assay with UACC-257, > 100 µM (inactive); in the assay on T47D, > 100 µM (inactive); in the assay on SK-MEL-5, 95.9 µM (inactive). Moreover, the GI50 in the assay with U-251 and with SK-OV-3 was > 100 µM (inactive) in each case.
Turning to `COC1=CCC2=C(CCN(C(=O)C3CC3)C2Cc2ccc(OC)c(O)c2)C1` (stereo not given), the GI50 is 63.4 µM (inactive) in the assay with A549; 86.7 µM (inactive) in the assay on LOX IMVI; 63.2 µM (inactive) in the assay on MDA-MB-231; 31.8 µM (inactive) in the assay with SK-MEL-28; 34 µM (inactive) in the assay with CCRF-CEM; 49.3 µM (inactive) in the assay on SN12C. The GI50 in the assay with 786-0 is 92.9 µM (inactive); in the assay with MDA-MB-435, 23.9 µM (inactive); in the assay on A498, 68.5 µM (inactive); in the assay with DU-145 it was > 100 µM (inactive); in the assay with KM12, 37.2 µM (inactive); in the assay on HT-29, 45.9 µM (inactive). In addition, the GI50 in the assay with SF-539 was 67 µM (inactive); in the assay with OVCAR-5, > 100 µM (inactive); with RPMI-8226, 34.2 µM (inactive); in the assay on UACC-257 it was 47.9 µM (inactive); in the assay with T47D it was 21 µM (inactive); with SK-MEL-5 it was 28.6 µM (inactive). The values for the GI50 in the assay with U-251 and in the assay on SK-OV-3 were 86.7 µM (inactive) and > 100 µM (inactive), respectively.
Take `CN(C)c1ccc(/C=c2\c3cc([N+](=O)[O-])ccc3n3c2cc(-c2ccccc2)[n+]3C)cc1`: the GI50 in the assay on A549 was 2.94 µM (inactive); with LOX IMVI, 1.57 µM (inactive); with MDA-MB-231 it was 1.73 µM (inactive); in the assay with SK-MEL-28 it was 0.948 µM (active); with CCRF-CEM, 0.601 µM (active); in the assay on SN12C, 0.454 µM (active). Moreover, the GI50 is 3.31 µM (inactive) in the assay on 786-0; 0.531 µM (active) with MDA-MB-435; 2.28 µM (inactive) in the assay with A498; 1.95 µM (inactive) in the assay with DU-145; 1.04 µM (active) with KM12; 1.52 µM (inactive) in the assay with HT-29. Also, the GI50 in the assay with SF-539 was 0.822 µM (active); in the assay with OVCAR-5, 3.63 µM (inactive); in the assay on RPMI-8226, 0.264 µM (active); in the assay on UACC-257 it was 0.918 µM (active); with T47D it was 0.458 µM (active); in the assay with SK-MEL-5, 0.318 µM (active). The concentration for 50% growth inhibition (GI50) with U-251 was 0.327 µM (active); in the assay with SK-OV-3 it was 3.92 µM (inactive).
Regarding `N#Cc1ccccc1OCCOc1ccccc1C#N`, the GI50 in the assay on A549, in the assay on LOX IMVI, with MDA-MB-231, in the assay with SK-MEL-28, in the assay with CCRF-CEM and with SN12C was > 100 µM (inactive) each time. Further, the GI50 in the assay on 786-0, with MDA-MB-435, in the assay on A498, in the assay with DU-145, in the assay with KM12 and in the assay on HT-29 was > 100 µM (inactive) each time. Moreover, the GI50 is 26.1 µM (inactive) in the assay on SF-539; > 100 µM (inactive) with OVCAR-5; > 100 µM (inactive) in the assay on RPMI-8226; > 100 µM (inactive) in the assay on UACC-257; > 100 µM (inactive) in the assay on T47D; > 100 µM (inactive) in the assay with SK-MEL-5. Besides, the figures for the GI50 in the assay with U-251 and with SK-OV-3 were 61 µM (inactive) and > 100 µM (inactive), respectively.

(Values after ChEMBL document CHEMBL1201862, “PubChem BioAssay data set” (2004).)
